Converted amounts (≈) assume the structure as drawn.
How the values were obtained:
Artemia = experiment: (§1) Toxicity in brine shrimp; assay type: organism-based; settings: in vivo
[1] = as §1; assay type: organism-based; settings: artemia, in vivo
P388 = experiment: Cytotoxicity against mouse P388 cells; assay type: functional, cell-based

With `O=C1CCNC(=O)c2[nH]c(Br)cc21` the Activity (Artemia) was “Not Active”.

`C=C(C)[C@H]1CCC[C@@]2(C)CCC[C@@](C)(SC#N)[C@@H]12` gave an LC50 [1] of 50 µg/mL (≈ 190 µM).

In the case of `O=C1NCC(O)n2cc(Br)cc21` (stereo not drawn), the Activity (Artemia) is reported as “Not Active”.

For `O=C(O)/C1=N/CCCC[C@@H](C(=O)O)N1`, the Activity (Artemia) was “Not Active”.

With `C=C(C)[C@H]1CCC[C@@]2(C)CCC[C@@](C)(NC=O)[C@@H]12` the LC50 [1] was 50 µg/mL (≈ 200 µM) and the IC50 (P388) was 1.2 µg/mL (≈ 4.81 µM).

Molecule `[C-]#[N+][C@]1(C)CCC[C@]2(C)CCC[C@H](C(=C)C)[C@@H]21` has an IC50 (P388) of 8.3 µg/mL (≈ 35.9 µM).

With `O=C1CCNC(=O)c2[nH]ccc21` [ALDISIN] the Activity (Artemia) was “Not Active”.

Source: ChEMBL document CHEMBL1150873, “A new lysine derivative and new 3-bromopyrrole carboxylic acid derivative from two marine sponges” (J Nat Prod, 1998)
